Source: patent US20210251981A1, “SOLID FORMS OF BERBERINE URSODEOXYCHOLATE AND COMPOSITIONS AND METHODS THEREOF” (SHENZHEN HIGHTIDE BIOPHARMACEUTICAL, LTD., priority 2017, published 2021)
Like-named read-outs stand apart in the source and are kept apart here.

Assays:
[1] = Equilibrium aqueous solubility; format: physicochemical
Description: (§1) Agilent 1260/1100 HPLC was utilized and detailed chromatographic conditions for purity and solubility measurement are listed in Table 5.
About 5 mg of each crystal type of solid (Form A of BBR-UDCA and Form D of BBR-UDCA, respectively) was weighed in separate 3-mL bottle, suspended into 1 mL of water, slurried (1000 rpm) at RT for 24 hours, and then centrifuged at 10000 rpm for 3 minutes. The resulting residual solids were characterized by XRPD and supernatant was measured by HPLC-DAD/ELSD. Due to the poor UV absorption of UDCA, DAD was used as the detector only for BBR and ELSD was used for both BBR and UDCA. […] The reason of the deviation from 1:1 may be that after HTD 1801 dissolving in water, a small amount of disproportionation occurred and it was hardly detected by XRPD due to its limited amount.

[2] = Accelerated stability evaluation (XRPD and HPLC after storage); format: physicochemical; conditions: for Purity (Area %): HPLC; for Form: XRPD; for decrease of HPLC purity: HPLC-DAD, under all three conditions
Source text: (§2) XRPD patterns were collected on a PANalytical X-ray powder diffractometer fitted with an automatic sample changer, a theta-theta goniometer, automatic beam divergence slit and a PSD Vantec-1 detector. The X-ray tube voltage and amperage were set to 45 kV and 40 mA respectively. The diffractometer was aligned and a calibration check performed using a corundum reference material on the day of data collection. Data were collected and analyzed by the software Data Viewer.
as §1
To evaluate the physical and chemical stability of Form A of BBR-UDCA and Form D of BBR-UDCA, samples were stored at 80° C. (sealed) for 24 hours, 25° C./60% RH (open) and 40° C./75% RH (open) for one week. […] The physical stability of Form A was better than Form D based on the 1-week stability results at 25° C./60% RH (open) and 40° C./75% RH (open).

[3] = 1-Month stability evaluation (XRPD and HPLC after storage); format: physicochemical; conditions: for Purity (Area %): HPLC; for Crystal Form: XRPD
Source text: as §2, §1
Samples of Form A of BBR-UDCA, Form D of BBR-UDCA and BBR-UDCA (mixed crystals without quality control on crystal forms) were stored 25° C./60% RH (sealed) and 40° C./75% RH (sealed) for one month.

[4] = Hygroscopicity evaluation by Dynamic Vapor Sorption (DVS); format: physicochemical; conditions: for water uptake: DVS
Description: DVS was measured via a SMS (Surface Measurement Systems) DVS Intrinsic.
Dynamic Vapor Sorption (DVS) isotherm plot of Form A of BBR-UDCA was collected at 25° C. with the various humidity, 60% RH-95% RH-0% RH-95% RH (60% RH was the ambient humidity). As the DVS plot shown, a step-like weight loss was observed between 10% RH and 20% RH.
To investigate the hygroscopicity of Form D of BBR-UDCA, DVS isotherm plot of Form D was collected at 25° C. between 0 and 95% RH.

[5] = air exposure
[6] = water, RT, 24 hours, ELSD as detector
[7] = 1 week, 25° C./60% RH (open), * = degree of crystallinity decreased
[8] = 1 week, 40° C./75% RH (open), * = degree of crystallinity decreased
[9] = 1 Month, 25° C./60% RH (sealed)
[10] = 1 Month, 40° C./75% RH (sealed)

SMILES | Purity/Initial purity (%) ([2]; 1 week, 25° C./60% RH (open)) | Purity (Area %) ([2]; 1 week, 25° C./60% RH (open)) | Form [2, 7] | Purity/Initial purity (%) ([2]; 1 week, 40° C./75% RH (open)) | Purity (Area %) ([2]; 1 week, 40° C./75% RH (open)) | Form [2, 8] | Purity/Initial purity (%) ([2]; 24 hours, 80° C. (sealed)) | Purity (Area %) ([2]; 24 hours, 80° C. (sealed)) | Form ([2]; 24 hours, 80° C. (sealed)) | decrease of HPLC purity [2] | Purity (Area %) ([2]; Initial) | Purity/Initial purity (%) [3, 9] | Purity (Area %) [3, 9] | Crystal Form [3, 9] | Purity/Initial purity (%) [3, 10] | Purity (Area %) [3, 10] | Crystal Form [3, 10] | Purity (Area %) ([3]; Initial) | water uptake ([4]; 25° C./80% RH) | other results
COc1ccc2cc3[n+](cc2c1OC)CCc1cc2c(cc1-3)OCO2.C[C@H](CCC(=O)[O-])[C@H]1CC[C@H]2[C@@H]3[C@@H](O)C[C@@H]4C[C@H](O)CC[C@]4(C)[C@H]3CC[C@]12C [Form A, berberine ursodeoxycholate] | 99.9% | 99.4 Area % | Form A | 99.8% | 99.4 Area % | Form A | 99.8% | 99.3 Area % | Form A | no HPLC purity decrease | 99.5 Area % | 99.8% | 99.3 Area % | Form A | 99.9% | 99.4 Area % | Form A | 99.5 Area % | 9.9% | Form of residual solid ([1]; water, RT, 24 hours slurry, XRPD, listed as Type A): Type A; Solubility of BBR ([1]; water, RT, 24 hours, DAD as detector): 350 µg/mL; Solubility of BBR [1, 6]: 330 µg/mL; Solubility of UDCA [1, 6]: 420 µg/mL; crystal-form change after DVS (XRPD) ([4]; 25° C., 60% RH-95% RH-0% RH-95% RH): no crystal-form change
COc1ccc2cc3[n+](cc2c1OC)CCc1cc2c(cc1-3)OCO2.C[C@H](CCC(=O)[O-])[C@H]1CC[C@H]2[C@@H]3[C@@H](O)C[C@@H]4C[C@H](O)CC[C@]4(C)[C@H]3CC[C@]12C [Form D, berberine ursodeoxycholate] | 99.3% | 98.9 Area % | Form D* | 98.3% | 97.9 Area % | Form D* | 99.5% | 99.0 Area % | Form D | 0.5-1.7 area % | 99.6 Area % | 97.6% | 97.2 Area % | Form D | 95.1% | 94.7 Area % | Form D | 99.6 Area % | 4.1% | Solubility of UDCA [1]: 520 µg/mL; molar ratio (BBR:UDCA) [1]: 0.93:1; crystal-form change (XRPD) ([2]; all three conditions: 80° C. sealed 24 hours, 25° C./60% RH open and 40° C./75% RH open one week): no crystal-form change; crystal-form change (XRPD) ([3]; 25° C./60% RH (sealed) and 40° C./75% RH (sealed), one month): No crystal-form change; behaviour in high humidity (DVS) ([4]; 25° C., over 90% RH): deliquesced in high humidity; water uptake ([4]; 25° C., 95% RH): 24.5%
COc1ccc2cc3[n+](cc2c1OC)CCc1cc2c(cc1-3)OCO2.C[C@H](CCC(=O)[O-])[C@H]1CC[C@H]2[C@@H]3[C@@H](O)C[C@@H]4C[C@H](O)CC[C@]4(C)[C@H]3CC[C@]12C [Form J, berberine ursodeoxycholate] | – | – | – | – | – | – | – | – | – | – | – | – | – | – | – | – | – | – | – | form conversion [5]: converts to Form A
COc1ccc2cc3[n+](cc2c1OC)CCc1cc2c(cc1-3)OCO2.C[C@H](CCC(=O)[O-])[C@H]1CC[C@H]2[C@@H]3[C@@H](O)C[C@@H]4C[C@H](O)CC[C@]4(C)[C@H]3CC[C@]12C [Mixed crystal, berberine ursodeoxycholate] | – | – | – | – | – | – | – | – | – | – | – | 91.7% | 90.8 Area % | Mixed | 89.6% | 88.7 Area % | Mixed | 99.0 Area % | – | –
